Assay results reported in patent US11078158B2, “(+)-3-(2,3-difluorophenyl)-3-methoxypyrrolidine or pharmaceutically acceptable salts thereof, a process for preparation thereof and uses thereof” (INTEGRATIVE RESEARCH LABORATORIES SWEDEN AB, priority 2017, dated 2021).

Key:
Hygroscopicity test = type: physicochemical; settings: 30° C., one week; for hygroscopicity (in words): any tested relative humidity
Experimental: Hygroscopicity tests of the salts were performed by keeping exact weight samples of the different salts at varied humidity at 30° C. After one week, the samples were weighed again and based on the original weight the percentage weight difference was calculated.
In the followed hygroscopicity test, the change in weight was measured after each acidic salt of (+)-3-(2,3-difluorophenyl)-3-methoxypyrrolidine was exposed for a week under the condition of 30° C. and different relative humidities (RH) 0 to 97%.

[1] = Flask method water solubility test; type: physicochemical; settings: saturated solution equilibrated at least 24 hours, room temperature
Experimental: In some cases, a further water solubility test (Flask method water solubility test) was performed as follows. An excess of salt was added to water. The mixture was equilibrated (shaking) for at least 24 hours thereby providing a saturated salt solution. Then the saturated solution was clear-filtered and transferred into a clean pre-weighed flask (mv). The mass of flask+saturated solution (mvs) was recorded. The solvent was evaporated under reduced pressure until constant mass. Flask containing dried residue was weighed (mvdr). The solubility expressed as “grams of solute/kg of solvent”, i.e. “grams of salt/kg of solvent”, was calculated according to the equation: […]
(mvdr-mv) is the weight difference in kg between (i) the mass of the flask containing dried residue after evaporation of the solvent and (ii) the mass of the flask, and
(mvs-mvdr) is the weight difference in kg between (i) the mass of the flask including the saturated salt solution and (ii) the mass of the flask containing the dried residue.

[2] = Regular water solubility test; type: physicochemical; settings: thermodynamic from solid, room temperature
Experimental: Water solubility tests for the salts as described herein were performed as follows unless otherwise stated. 0.05 g of each salt was weighed in a flask and the mass of flask+salt (m-vs) was recorded. Water was slowly added dropwise into the flask with salt until full dissolution was achieved as observed by the naked eye. The mass of flask+salt+solvent (m-sys) was recorded.
(s) stands for the weight of the salt measured in kg,
(m-sys) stands for the mass of the flask+salt+solvent measured in kg, and
(m-vs) stands for the mass of the flask+salt measured in kg.

[3] = Crystalline phase at tested relative humidity; type: physicochemical; settings: any tested relative humidity
human sigma 1 receptor = target: T1, human sigma 1 receptor (Homo sapiens, UniProt Q99720); assay: In vitro competition binding assay, human sigma 1 receptor; settings: 1.0 E-5 M test compound, 15 nM [3H] pentazocine, duplicate, mean value; read-out: Percent inhibition of the control radioligand specific binding
T1 construct: Cell membrane homogenates (150 μg protein) were incubated for 120 min at 37° C. with 15 nM; endogenous in cells; inferred to be Jurkat human T lymphocytes from the cited method (Ganapathy et al. 1999)
T1 sequence (Q99720 whole entry): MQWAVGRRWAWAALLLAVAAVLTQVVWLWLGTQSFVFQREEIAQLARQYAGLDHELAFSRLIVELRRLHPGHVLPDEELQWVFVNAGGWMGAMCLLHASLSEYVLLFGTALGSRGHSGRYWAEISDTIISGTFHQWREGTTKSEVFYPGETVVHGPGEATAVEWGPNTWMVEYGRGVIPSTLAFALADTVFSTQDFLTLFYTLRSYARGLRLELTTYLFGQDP
Experimental: The binding affinity of the fumaric acid salt of (+)-3-(2,3-difluorophenyl)-3-methoxypyrrolidine at the human sigma 1 receptor was determined by a competition binding assay similar to what is described in […], M. E., PRASAD, P. D., HUANG, W., SETH, P., LEIBACH, F. H. and […], V. (1999), Molecular and ligand-binding characterization of the σ-receptor in the Jurkat human T lymphocyte cell line, J. Pharmacol. Exp. Ther., 289: 251.
Cell membrane homogenates (150 μg protein) were incubated for 120 min at 37° C. with 15 nM [^3H] pentazocine in the absence or presence of the test compound in a buffer containing 50 mM Tris-HCl (pH 8).
Nonspecific binding was determined in the presence of 10 μM haloperidol.
Following incubation, the samples were filtered under vacuum through glass fiber filters (GF/B, Packard) presoaked with 0.3% PEI and rinsed several times with ice-cold 50 mM Tris-HCl using a 96-sample cell harvester (Unifilter, Packard). The filters were dried then counted for radioactivity in a scintillation counter (Topcount, Packard) using a scintillation cocktail (Microscint 0, Packard).
The results were expressed as a percent inhibition of the control radioligand specific binding.
The standard reference compound was haloperidol, which was tested in each experiment at several concentrations to obtain a competition curve from which its IC50 value was calculated. […]

Row | Structure (SMILES) | Weight difference (%) (Hygroscopicity test; relative humidity 0%) | Weight difference (%) (Hygroscopicity test; relative humidity 6%) | Weight difference (%) (Hygroscopicity test; relative humidity 11%) | Weight difference (%) (Hygroscopicity test; relative humidity 22%) | Weight difference (%) (Hygroscopicity test; relative humidity 32%) | Weight difference (%) (Hygroscopicity test; relative humidity 43%) | Weight difference (%) (Hygroscopicity test; relative humidity 56%) | Weight difference (%) (Hygroscopicity test; relative humidity 73%) | Weight difference (%) (Hygroscopicity test; relative humidity 84%) | Weight difference (%) (Hygroscopicity test; relative humidity 97%) | Solubility in water (Flask method water solubility test) [1] [mg/mL] | solubility [2] [mg/mL] | change of crystalline phase with humidity (in words) [3] | inhibition at 10 µM (human sigma 1 receptor) [%] | hygroscopicity (in words) (Hygroscopicity test; listed as Example 11) | hygroscopicity (in words) (Hygroscopicity test; listed as salt of Formula IIb) | solubility ([1]; water, thermodynamic from solid) [mg/mL]
1 | COC1(c2cccc(F)c2F)CCNC1.O=C(O)C(=O)O (stereo not drawn) [Reference Example 19, oxalic Acid Salt of (+)-3-(2,3-difluorophenyl)-3-methoxypyrrolidine, reference compound] | 0.00 | 0.00 | −0.21 | 0.00 | 0.11 | −0.05 | 0.00 | −0.05 | −0.15 | 0.26 | 28 | – | – | – | – | – | –
2 | COC1(c2cccc(F)c2F)CCNC1.O=C(O)C(O)C(O)C(=O)O [Example 9, L-Tartaric acid salt of (+)-3-(2,3-difluorophenyl)-3-methoxypyrrolidine] | −2.36 | −0.67 | −0.14 | 2.40 | 2.16 | 1.71 | 1.99 | 1.90 | 2.13 | 2.39 | – | – | – | – | – | – | –
3 | COC1(c2cccc(F)c2F)CCNC1.O=C(O)C[C@H](O)C(=O)O [Example 13, L-Malic Acid Salt of (+)-3-(2,3-difluorophenyl)-3-methoxypyrrolidine] | −0.07 | 0.00 | −0.13 | −0.08 | 0.00 | −0.22 | −0.06 | 0.07 | 0.40 | 34.37 | – | – | – | – | – | – | –
4 | CO[C@]1(c2cccc(F)c2F)CCNC1.O=C(O)/C=C/C(=O)O [Example 7, fumarate Salt of (+)-3-(2,3-difluorophenyl)-3-methoxypyrrolidine] | −0.07 | −0.14 | 0.11 | 0.15 | 0.13 | 0.07 | 0.19 | 0.06 | 0.00 | 0.16 | – | 34 | not changing in its crystalline phase at any tested relative humidity | 79.1 | does not adsorb or desorb water at any humidity | not being hygroscopic | 74.1
5 | COC1(c2cccc(F)c2F)CCNC1.Cl (stereo not drawn) [Example 8, Hydrochloric Acid Salt of (+)-3-(2,3-difluorophenyl)-3-methoxypyrrolidine] | 0.00 | −0.07 | −0.06 | −0.15 | 0.00 | −0.13 | −0.14 | −0.13 | 25.77 | 99.12 | – | – | – | – | – | – | –
